{
  "source": "paper PMC4522657",
  "about": "“Identification of a DYRK1A Inhibitor that Induces Degradation of the Target Kinase using Co-chaperone CDC37 fused with Luciferase nanoKAZ” (Scientific Reports, 2015)",
  "experiment_in_all_cases": "Kinase panel, CaNDY 1 µM",
  "assay_type_in_all_cases": "biochemical",
  "conditions_in_all_cases": "CaNDY 1 µM relative to DMSO",
  "key": {"IKKε": {"biological_target": "T1, IKKε (Homo sapiens, UniProt Q14164)", "T1 construct": "purchased Carna Biosciences", "how_it_was_run": "(§1)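 Reaction: 1 h, room temperature, 1% DMSO final. Detection: off-chip mobility shift, product and substrate resolved electrophoretically. Output: % inhibition from P/(P+S) versus control without compound. Enzyme: baculovirus-made full-length human GST-fusion kinase.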"}, "SGK": {"biological_target": "T2, SGK (Homo sapiens, UniProt O00141)", "T2 construct": "purchased Carna Biosciences", "how_it_was_run": "as §1"}, "MER": {"biological_target": "T3, MER (Homo sapiens, UniProt Q12866)", "T3 construct": "purchased Carna Biosciences", "how_it_was_run": "as §1"}, "TAK1-TAB1_Cascade": {"biological_target": "T4, TAK1-TAB1_Cascade (Homo sapiens, UniProt O43318)", "T4 construct": "purchased Carna Biosciences", "T4 sequence (O43318 with tags, fused parts or gaps limits assumed)": "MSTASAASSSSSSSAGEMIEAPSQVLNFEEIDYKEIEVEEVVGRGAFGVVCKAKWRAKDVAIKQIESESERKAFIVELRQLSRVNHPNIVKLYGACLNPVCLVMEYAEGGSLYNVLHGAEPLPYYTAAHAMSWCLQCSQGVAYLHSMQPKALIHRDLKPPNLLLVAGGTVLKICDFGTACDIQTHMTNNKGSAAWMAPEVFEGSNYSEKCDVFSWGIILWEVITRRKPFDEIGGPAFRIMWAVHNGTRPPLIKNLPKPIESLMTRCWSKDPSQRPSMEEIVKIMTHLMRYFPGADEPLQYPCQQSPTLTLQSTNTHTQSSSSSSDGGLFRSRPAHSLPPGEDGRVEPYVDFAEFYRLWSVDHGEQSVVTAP", "how_it_was_run": "as §1"}, "PKCη": {"biological_target": "T5, PKCη (Homo sapiens, UniProt P24723)", "T5 construct": "purchased Carna Biosciences", "how_it_was_run": "as §1"}, "PKD1": {"biological_target": "T6, PKD1 (Homo sapiens, UniProt Q15139)", "T6 construct": "purchased Carna Biosciences", "how_it_was_run": "as §1"}, "FGFR4(V550E)": {"biological_target": "T7, FGFR4(V550E) (Homo sapiens, UniProt P22455, V550E)", "T7 construct": "purchased Carna Biosciences", "how_it_was_run": "as §1"}, "RET(G691S)": {"biological_target": "T8, RET(G691S) (Homo sapiens, UniProt P07949, G691S)", "T8 construct": "purchased Carna Biosciences", "T8 sequence (P07949 29-1114 G691S)": "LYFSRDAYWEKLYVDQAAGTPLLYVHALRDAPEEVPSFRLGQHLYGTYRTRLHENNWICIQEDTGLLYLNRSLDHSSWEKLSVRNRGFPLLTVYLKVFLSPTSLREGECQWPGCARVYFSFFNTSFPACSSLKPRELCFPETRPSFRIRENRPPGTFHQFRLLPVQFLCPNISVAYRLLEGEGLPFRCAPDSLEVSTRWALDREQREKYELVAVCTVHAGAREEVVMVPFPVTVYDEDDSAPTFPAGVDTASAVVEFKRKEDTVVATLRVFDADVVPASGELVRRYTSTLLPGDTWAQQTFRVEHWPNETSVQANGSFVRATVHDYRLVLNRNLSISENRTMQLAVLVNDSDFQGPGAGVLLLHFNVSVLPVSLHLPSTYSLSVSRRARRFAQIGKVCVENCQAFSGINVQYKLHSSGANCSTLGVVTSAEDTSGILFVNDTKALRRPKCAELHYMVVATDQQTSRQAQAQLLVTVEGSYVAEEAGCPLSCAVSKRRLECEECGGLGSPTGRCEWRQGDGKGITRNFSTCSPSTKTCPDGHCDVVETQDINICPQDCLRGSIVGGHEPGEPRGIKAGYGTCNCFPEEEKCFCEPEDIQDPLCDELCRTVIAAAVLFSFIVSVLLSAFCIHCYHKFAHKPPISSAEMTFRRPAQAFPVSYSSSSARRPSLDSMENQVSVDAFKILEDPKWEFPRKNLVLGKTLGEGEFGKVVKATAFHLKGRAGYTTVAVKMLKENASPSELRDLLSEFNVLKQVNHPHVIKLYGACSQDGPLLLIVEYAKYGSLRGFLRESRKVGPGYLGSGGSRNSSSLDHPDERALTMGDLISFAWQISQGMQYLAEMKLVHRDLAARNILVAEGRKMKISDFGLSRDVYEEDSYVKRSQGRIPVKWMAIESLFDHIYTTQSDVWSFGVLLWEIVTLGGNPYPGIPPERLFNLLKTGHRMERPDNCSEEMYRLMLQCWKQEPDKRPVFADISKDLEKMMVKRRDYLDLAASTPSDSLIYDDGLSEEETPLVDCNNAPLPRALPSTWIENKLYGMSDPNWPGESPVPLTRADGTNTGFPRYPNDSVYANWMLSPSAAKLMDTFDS", "how_it_was_run": "as §1"}, "FAK": {"biological_target": "T9, FAK (Homo sapiens, UniProt Q05397)", "T9 construct": "purchased Carna Biosciences", "how_it_was_run": "as §1"}, "CHK1": {"biological_target": "T10, CHK1 (Homo sapiens, UniProt O14757)", "T10 construct": "purchased Carna Biosciences", "how_it_was_run": "as §1"}, "AMPKα2/β1/γ1": {"biological_target": "T11, AMPKα2/β1/γ1 (Homo sapiens, UniProt P54646)", "T11 construct": "purchased Carna Biosciences", "how_it_was_run": "as §1"}, "EGFR": {"biological_target": "T12, EGFR (Homo sapiens, UniProt P00533)", "T12 construct": "purchased Carna Biosciences", "T12 sequence (P00533 25-1210)": "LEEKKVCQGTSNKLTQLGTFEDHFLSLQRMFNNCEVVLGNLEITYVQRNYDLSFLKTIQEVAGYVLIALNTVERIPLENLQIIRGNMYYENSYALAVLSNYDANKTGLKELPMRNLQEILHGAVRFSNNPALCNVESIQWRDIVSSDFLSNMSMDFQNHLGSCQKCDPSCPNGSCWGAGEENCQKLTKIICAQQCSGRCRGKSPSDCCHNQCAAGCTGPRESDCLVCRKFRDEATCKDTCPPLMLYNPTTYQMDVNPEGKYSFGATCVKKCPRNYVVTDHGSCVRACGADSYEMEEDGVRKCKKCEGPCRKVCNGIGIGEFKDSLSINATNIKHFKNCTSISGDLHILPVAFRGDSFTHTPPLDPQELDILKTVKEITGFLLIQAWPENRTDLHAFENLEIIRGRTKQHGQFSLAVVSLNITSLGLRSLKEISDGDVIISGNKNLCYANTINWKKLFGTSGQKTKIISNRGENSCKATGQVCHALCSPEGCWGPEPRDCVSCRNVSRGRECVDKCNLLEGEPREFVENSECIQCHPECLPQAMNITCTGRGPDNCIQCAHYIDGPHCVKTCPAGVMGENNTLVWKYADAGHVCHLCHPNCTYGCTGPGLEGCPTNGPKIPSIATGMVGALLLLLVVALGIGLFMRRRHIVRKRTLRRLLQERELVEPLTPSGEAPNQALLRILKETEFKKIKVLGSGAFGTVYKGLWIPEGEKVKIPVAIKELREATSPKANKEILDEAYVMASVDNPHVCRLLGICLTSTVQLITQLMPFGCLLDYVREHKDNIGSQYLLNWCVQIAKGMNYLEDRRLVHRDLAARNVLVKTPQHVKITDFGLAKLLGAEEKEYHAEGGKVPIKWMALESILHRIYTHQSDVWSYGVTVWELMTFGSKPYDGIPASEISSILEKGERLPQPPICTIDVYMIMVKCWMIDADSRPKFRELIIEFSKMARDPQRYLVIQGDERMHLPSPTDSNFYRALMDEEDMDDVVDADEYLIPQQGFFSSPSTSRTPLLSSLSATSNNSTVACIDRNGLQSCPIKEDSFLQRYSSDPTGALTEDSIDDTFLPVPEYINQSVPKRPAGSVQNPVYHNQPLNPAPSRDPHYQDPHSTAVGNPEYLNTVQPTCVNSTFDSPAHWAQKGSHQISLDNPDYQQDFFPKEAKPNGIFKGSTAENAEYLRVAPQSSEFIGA", "how_it_was_run": "as §1"}, "CDC2/CycB1": {"biological_target": "T13, CDC2/CycB1 (Homo sapiens, UniProt P06493)", "T13 construct": "purchased Carna Biosciences", "how_it_was_run": "as §1"}, "p70S6Kβ": {"biological_target": "T14, p70S6Kβ (Homo sapiens, UniProt Q9UBS0)", "T14 construct": "purchased Carna Biosciences", "how_it_was_run": "as §1"}, "NPM1-ALK": {"biological_target": "T15, NPM1-ALK (Homo sapiens, UniProt P06748+Q9UM73)", "T15 construct": "purchased Carna Biosciences", "T15 sequence (P06748+Q9UM73 fused)": "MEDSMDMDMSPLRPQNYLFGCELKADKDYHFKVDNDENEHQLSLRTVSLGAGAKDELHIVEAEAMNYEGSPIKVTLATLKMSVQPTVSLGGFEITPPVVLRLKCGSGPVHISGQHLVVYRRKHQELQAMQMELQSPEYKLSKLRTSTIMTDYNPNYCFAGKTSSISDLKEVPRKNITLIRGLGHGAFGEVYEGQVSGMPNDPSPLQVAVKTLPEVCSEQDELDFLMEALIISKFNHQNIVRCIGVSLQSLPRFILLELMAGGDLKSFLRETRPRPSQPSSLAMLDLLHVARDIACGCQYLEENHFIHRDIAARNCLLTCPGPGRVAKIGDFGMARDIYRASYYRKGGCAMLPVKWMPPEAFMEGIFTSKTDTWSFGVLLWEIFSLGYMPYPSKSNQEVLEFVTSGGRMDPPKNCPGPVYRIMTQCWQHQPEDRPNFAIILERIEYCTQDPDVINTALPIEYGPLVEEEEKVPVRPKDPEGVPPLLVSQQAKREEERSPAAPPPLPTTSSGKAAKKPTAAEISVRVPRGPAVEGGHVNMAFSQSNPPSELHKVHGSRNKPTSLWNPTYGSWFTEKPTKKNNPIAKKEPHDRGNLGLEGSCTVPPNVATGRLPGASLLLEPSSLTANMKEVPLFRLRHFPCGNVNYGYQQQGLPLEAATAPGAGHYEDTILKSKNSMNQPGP", "how_it_was_run": "as §1"}, "AurB": {"biological_target": "T16, AurB (Homo sapiens, UniProt Q96GD4)", "T16 construct": "purchased Carna Biosciences", "T16 sequence (Q96GD4 whole entry)": "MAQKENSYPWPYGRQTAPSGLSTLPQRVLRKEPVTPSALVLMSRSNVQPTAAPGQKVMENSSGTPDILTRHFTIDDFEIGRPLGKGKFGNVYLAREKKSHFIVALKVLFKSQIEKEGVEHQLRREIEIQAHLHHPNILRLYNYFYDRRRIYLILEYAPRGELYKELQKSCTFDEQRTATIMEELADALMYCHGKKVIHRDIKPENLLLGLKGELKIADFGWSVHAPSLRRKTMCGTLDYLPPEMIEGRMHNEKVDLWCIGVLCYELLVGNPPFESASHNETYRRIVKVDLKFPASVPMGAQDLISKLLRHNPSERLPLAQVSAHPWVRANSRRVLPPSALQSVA", "T16 sequence (Q9NQS7 803-918 partner limits assumed)": "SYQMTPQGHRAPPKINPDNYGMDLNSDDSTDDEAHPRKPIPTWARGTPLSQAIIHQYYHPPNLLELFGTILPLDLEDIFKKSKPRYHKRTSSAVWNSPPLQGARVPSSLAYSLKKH", "how_it_was_run": "as §1"}, "RSK3": {"biological_target": "T17, RSK3 (Homo sapiens, UniProt Q15349)", "T17 construct": "purchased Carna Biosciences", "how_it_was_run": "as §1"}, "FRK": {"biological_target": "T18, FRK (Homo sapiens, UniProt P42685)", "T18 construct": "purchased Carna Biosciences", "how_it_was_run": "as §1"}, "CK1δ": {"biological_target": "T19, CK1δ (Homo sapiens, UniProt P48730)", "T19 construct": "purchased Carna Biosciences", "how_it_was_run": "as §1"}, "DDR2": {"biological_target": "T20, DDR2 (Homo sapiens, UniProt Q16832)", "T20 construct": "purchased Carna Biosciences", "how_it_was_run": "as §1"}, "PKCθ": {"biological_target": "T21, PKCθ (Homo sapiens, UniProt Q04759)", "T21 construct": "purchased Carna Biosciences", "how_it_was_run": "as §1"}, "JNK2": {"biological_target": "T22, JNK2 (Homo sapiens, UniProt P45984)", "T22 construct": "purchased Carna Biosciences", "how_it_was_run": "as §1"}, "ARG": {"biological_target": "T23, ARG (Homo sapiens, UniProt P42684)", "T23 construct": "purchased Carna Biosciences", "how_it_was_run": "as §1"}, "AurA": {"biological_target": "T24, AurA (Homo sapiens, UniProt O14965)", "T24 construct": "purchased Carna Biosciences", "how_it_was_run": "as §1"}, "LYNa": {"biological_target": "T25, LYNa (Homo sapiens, UniProt P07948)", "T25 construct": "purchased Carna Biosciences", "how_it_was_run": "as §1"}, "EPHB4": {"biological_target": "T26, EPHB4 (Homo sapiens, UniProt P54760)", "T26 construct": "purchased Carna Biosciences", "how_it_was_run": "as §1"}, "TRKB": {"biological_target": "T27, TRKB (Homo sapiens, UniProt Q16620)", "T27 construct": "purchased Carna Biosciences", "T27 sequence (Q16620 32-822)": "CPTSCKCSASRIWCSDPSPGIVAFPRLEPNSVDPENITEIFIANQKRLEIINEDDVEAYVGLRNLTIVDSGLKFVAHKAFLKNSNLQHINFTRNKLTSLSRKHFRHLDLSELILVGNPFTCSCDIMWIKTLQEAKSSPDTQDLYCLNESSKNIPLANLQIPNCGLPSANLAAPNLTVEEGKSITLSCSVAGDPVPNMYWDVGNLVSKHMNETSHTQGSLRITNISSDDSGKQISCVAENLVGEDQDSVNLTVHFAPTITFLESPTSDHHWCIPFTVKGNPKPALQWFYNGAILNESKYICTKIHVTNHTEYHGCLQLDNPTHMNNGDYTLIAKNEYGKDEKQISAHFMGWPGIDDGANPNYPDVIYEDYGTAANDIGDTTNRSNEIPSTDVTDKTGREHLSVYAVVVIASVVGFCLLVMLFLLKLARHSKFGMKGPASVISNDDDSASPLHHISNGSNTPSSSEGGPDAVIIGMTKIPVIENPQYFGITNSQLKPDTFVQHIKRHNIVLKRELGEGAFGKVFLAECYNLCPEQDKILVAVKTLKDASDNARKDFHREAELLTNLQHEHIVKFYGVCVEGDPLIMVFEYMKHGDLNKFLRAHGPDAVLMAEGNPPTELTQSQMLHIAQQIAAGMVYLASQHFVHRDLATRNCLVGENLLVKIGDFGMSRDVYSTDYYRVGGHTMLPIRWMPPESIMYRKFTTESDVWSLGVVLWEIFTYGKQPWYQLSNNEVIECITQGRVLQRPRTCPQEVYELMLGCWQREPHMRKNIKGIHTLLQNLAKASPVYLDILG", "how_it_was_run": "as §1"}, "PAK3": {"biological_target": "T28, PAK3 (Homo sapiens, UniProt O75914)", "T28 construct": "purchased Carna Biosciences", "how_it_was_run": "as §1"}, "PKCζ": {"biological_target": "T29, PKCζ (Homo sapiens, UniProt Q05513)", "T29 construct": "purchased Carna Biosciences", "how_it_was_run": "as §1"}, "RET(Y791F)": {"biological_target": "T30, RET(Y791F) (Homo sapiens, UniProt P07949, Y791F)", "T30 construct": "purchased Carna Biosciences", "T30 sequence (P07949 29-1114 Y791F)": "as the sequence (P07949 29-1114 G691S) above, with S663G, Y763F counted along it", "how_it_was_run": "as §1"}, "PLK3": {"biological_target": "T31, PLK3 (Homo sapiens, UniProt Q9H4B4)", "T31 construct": "purchased Carna Biosciences", "how_it_was_run": "as §1"}, "MST3": {"biological_target": "T32, MST3 (Homo sapiens, UniProt Q9Y6E0)", "T32 construct": "purchased Carna Biosciences", "how_it_was_run": "as §1"}, "MST2": {"biological_target": "T33, MST2 (Homo sapiens, UniProt Q13188)", "T33 construct": "purchased Carna Biosciences", "how_it_was_run": "as §1"}, "PKCδ": {"biological_target": "T34, PKCδ (Homo sapiens, UniProt Q05655)", "T34 construct": "purchased Carna Biosciences", "how_it_was_run": "as §1"}, "PLK1": {"biological_target": "T35, PLK1 (Homo sapiens, UniProt P53350)", "T35 construct": "purchased Carna Biosciences"}, "RET(S891A)": {"biological_target": "T36, RET(S891A) (Homo sapiens, UniProt P07949, S891A)", "T36 construct": "purchased Carna Biosciences", "T36 sequence (P07949 29-1114 S891A)": "as the sequence (P07949 29-1114 G691S) above, with S663G, S863A counted along it"}},
  "data": [
    {"compound": "[H]/N=C1/NC(=O)C(=Cc2ccc3c(c2)CCO3)S1", "note": "[CaNDY, (Z)-5-[(2,3-dihydrobenzofuran-5-yl)methylene]-2-iminothiazolidin-4-one]", "values": [
      {"measurement": "remaining activity at 1 µM", "setting": "IKKε", "value": 97.6, "unit": "%"},
      {"measurement": "remaining activity at 1 µM", "setting": "SGK", "value": 93.6, "unit": "%"},
      {"measurement": "remaining activity at 1 µM", "setting": "MER", "value": 102, "unit": "%"},
      {"measurement": "remaining activity at 1 µM", "setting": "TAK1-TAB1_Cascade", "value": 104, "unit": "%"},
      {"measurement": "remaining activity at 1 µM", "setting": "PKCη", "value": 92.8, "unit": "%"},
      {"measurement": "remaining activity at 1 µM", "setting": "PKD1", "value": 72.9, "unit": "%"},
      {"measurement": "remaining activity at 1 µM", "setting": "FGFR4(V550E)", "value": 102, "unit": "%"},
      {"measurement": "remaining activity at 1 µM", "setting": "RET(G691S)", "value": 102, "unit": "%"},
      {"measurement": "remaining activity at 1 µM", "setting": "FAK", "value": 98.5, "unit": "%"},
      {"measurement": "%Activity", "setting": "CHK1", "value": 93.5, "unit": "%"},
      {"measurement": "remaining activity at 1 µM", "setting": "AMPKα2/β1/γ1", "value": 97.5, "unit": "%"},
      {"measurement": "%Activity", "setting": "EGFR", "value": 99.9, "unit": "%"},
      {"measurement": "remaining activity at 1 µM", "setting": "CDC2/CycB1", "value": 65.7, "unit": "%"},
      {"measurement": "remaining activity at 1 µM", "setting": "p70S6Kβ", "value": 88.9, "unit": "%"},
      {"measurement": "remaining activity at 1 µM", "setting": "NPM1-ALK", "value": 97.8, "unit": "%"},
      {"measurement": "remaining activity at 1 µM", "setting": "AurB", "value": 95.1, "unit": "%"},
      {"measurement": "remaining activity at 1 µM", "setting": "RSK3", "value": 91.4, "unit": "%"},
      {"measurement": "remaining activity at 1 µM", "setting": "FRK", "value": 102, "unit": "%"},
      {"measurement": "remaining activity at 1 µM", "setting": "CK1δ", "value": 67.9, "unit": "%"},
      {"measurement": "remaining activity at 1 µM", "setting": "DDR2", "value": 101, "unit": "%"},
      {"measurement": "remaining activity at 1 µM", "setting": "PKCθ", "value": 74.9, "unit": "%"},
      {"measurement": "%Activity", "setting": "JNK2", "value": 102.6, "unit": "%"},
      {"measurement": "remaining activity at 1 µM", "setting": "ARG", "value": 98.8, "unit": "%"},
      {"measurement": "remaining activity at 1 µM", "setting": "AurA", "value": 114, "unit": "%"},
      {"measurement": "remaining activity at 1 µM", "setting": "LYNa", "value": 97.6, "unit": "%"},
      {"measurement": "remaining activity at 1 µM", "setting": "EPHB4", "value": 96.6, "unit": "%"},
      {"measurement": "remaining activity at 1 µM", "setting": "TRKB", "value": 101, "unit": "%"},
      {"measurement": "remaining activity at 1 µM", "setting": "PAK3", "value": 109, "unit": "%"},
      {"measurement": "remaining activity at 1 µM", "setting": "PKCζ", "value": 95.9, "unit": "%"},
      {"measurement": "remaining activity at 1 µM", "setting": "RET(Y791F)", "value": 100, "unit": "%"},
      {"measurement": "remaining activity at 1 µM", "setting": "PLK3", "value": 95.9, "unit": "%"},
      {"measurement": "%Activity", "setting": "MST3", "value": 100.2, "unit": "%"},
      {"measurement": "remaining activity at 1 µM", "setting": "MST2", "value": 103, "unit": "%"},
      {"measurement": "remaining activity at 1 µM", "setting": "PKCδ", "value": 74.1, "unit": "%"},
      {"measurement": "remaining activity at 1 µM", "setting": "PLK1", "value": 99.2, "unit": "%"},
      {"measurement": "remaining activity at 1 µM", "setting": "RET(S891A)", "value": 103, "unit": "%"}
    ]}
  ]
}
